# According to patent publication US20250295656A1, “COMBINATION OF LURBINECTEDIN AND IMMUNE CHECKPOINT INHIBITORS” (priority 2020, published 2025):
# Key:
# [1] = tested on: Murine fibrosarcoma MCA205 cells; experiment: In vitro cell death of MCA205 cells prepared for vaccination; assay type: cell-based, mouse; details: 1 μM lurbinectedin for 24 h
# MCA205 tumours = experiment: Established MCA205 tumours in immunodeficient mice; assay type: in vivo; details: athymic (nu/nu) mice; 0.18 mg/kg i.v. day 1, 7 and 14
# Protocol: Live MCA205 cells were injected subcutaneously (s.c.) into immunocompetent C57BL/6 mice or immunodeficient nu/nu mice as depicted in the scheme in (a) When tumours became palpable, mice were intravenously ([…]). Tumour growth was assessed regularly for the following 30 days. Data is depicted as tumour growth curves (b,d) and overall survival plots (c,e). Data were analyzed with TumGrowth.
# (§1) In order to assess the capacity of lurbinectedin to stimulate anticancer immunity in a monotherapeutic approach and to convert tumour cells into a therapeutic vaccine we exposed murine fibrosarcoma cells to the drug in vitro (in conditions previously established to induce a sufficient amplitude of cell death) and then injected the dying cancer cells into syngeneic immunocompetent mice. […] Next we evaluated the effect of lurbinectedin on established cancers growing on immunocompetent or immunodeficient mice. […]
# (§2) Six- to eight-week-old female wild-type C57BL/6 and nu/nu mice were obtained from Envigo France (Huntingdon, UK) and were kept in the animal facility at the Gustave Roussy Campus Cancer in a specific pathogen-free and temperature-controlled environment with 12 h day, 12 h night cycles and received food and water ad libitum. […] Animals were monitored and tumour growth documented regularly until end-points were reached. […]
# MCA205 fibrosarcoma = experiment: Anticancer vaccination with lurbinectedin-treated dying MCA205 cells and rechallenge; assay type: in vivo, immunocompetent C57BL/6 mice; details: MCA205 cells treated with 1 μM lurbinectedin injected s.c., rechallenge with live cells one week later
# Protocol: MCA205 cells treated for 20 h with 1 μM lurbinectedin were inoculated subcutaneously (s.c.) into immunocompetent C57BL/6 mice, which were rechallenged 7 days later s.c. with living cells of the same type. The tumour growth was measured until endpoints were reached and overall survival was evaluated regularly for the following 30 days (n=6). (*p<. 01, two-tailed Student's t test, compared to all other groups). Data were analyzed with TumGrowth.
# as §1, §2
# [2] = tested on: U2OS biosensor cells expressing GFP under the MX1 promoter; experiment: Type I IFN response (MX1-GFP biosensor cells treated with supernatant); assay type: cell-based, human; details: supernatant of treated U2OS cells after 48 hours fresh media; biosensor cells 48 hours; throughout all time points
# Protocol: In a systematic screening campaign, the capacity of lurbinectedin to induce immunogenic cell death in cancer cells was assessed in human osteosarcoma U2OS cells stably expressing fluorescent biosensors for the detection of CALR-relocation (as a surrogate marker for CALR surface exposure), HMGB1 release and Type I IFN responses together with U2OS WT cells stained with the ATP-sensitive dye quinacrine. […] The induction of cell death was evaluated based on changes in the nuclear morphology visualized by means of the DNA intercalating dye Hoechst 33342.
compound,measurement,setting,value
COc1ccc2[nH]c3c(c2c1)CCN[C@]31CS[C@@H]2c3c(OC(C)=O)c(C)c4c(c3[C@H](COC1=O)N1[C@@H]2[C@H]2c3c(cc(C)c(OC)c3O)C[C@@H]([C@@H]1O)N2C)OCO4 [lurbinectedin],cell death,[1],approximately 70%
same,"therapeutic effect (tumour growth, overall survival)",MCA205 tumours,lost
same,overall survival after rechallenge,MCA205 fibrosarcoma,increase
same,tumour growth after rechallenge,MCA205 fibrosarcoma; p=0.0094,significantly reduced
same,de novo GFP signal intensity (type 1 IFN response),[2],significant increase
